This is an account of results in patent publication US4048007A, “Method of removing solvent residues from aqueous paper pulps” (The Dow Chemical Company, priority 1976, dated 1977).

Like-named read-outs stand apart in the source and are kept apart here.

The conditions of data set [1]: cited from earlier work; for Vapor Pressure of pure solvent: 20° C., Table I; for Vapor Pressure at 20° C.: Example 4.
The conditions of data set [2]: cited from earlier work.
Data set [3] is described as follows: Henry's Law constant H of solvent in water. The class given is physicochemical. The note with it: for Henry's Law constant, H: Table I; for Value of H: Table II. The procedure: In a first or single stage, the incoming gas contains no solvent, yo is 0 and Em = y/y*. y is determined by analyzing a sample of the off-gas and y* can be calculated from the total vapor pressure P, the mole fraction (x) of the solvent in the liquid leaving the stage and H, the Henry's Law constant. That is, y*P (the partial pressure of the solvent) is equal to Hx, or y* = Hx/P.
For an aqueous solution of a sparingly soluble chlorinated hydrocarbon (for which Henry's law holds reasonably well over the full range of solubility up to saturation), H can be determined from the solvent solubility (c) in water and the vapor pressure (po) of the pure solvent, at a particular temperature; i.e., H = po /C. solubilities, vapor pressures and H values, at 20° C., are given below for three chlorinated hydrocarbon solvents.
The effect on H of operating at temperatures somewhat above or below […] is indicated in the following tabulation: […]

A short description of data set [4]: Air stripping of solvent from water (no fibers), time to strip 90% (Example 4). The class given is physicochemical. The settings on record: 200 ml water, 5 g solvent, air stripped as in Example 2 (20° C., 2 cubic feet per minute). The protocol: In a single tray apparatus similar to that in Example 1, air at 20° C. was passed at a rate of 2 cubic feet per minute through 200 ml. batches of various consistency aqueous Kraft pulps containing initially 1% by volume (2.0 ml, or […]) of dispersed perchloroethylene, C2 Cl4, which is very sparingly soluble in water (150 ppm). After 3 minutes, the residual weight of C2 Cl4 found was:
200 ml. batches of water (no fibers) containing 5 g. of solvent were stripped with air as in Example 2. The time required to strip 90% of the solvent was measured: […]

The nature of data set [5]: Dissolved solvent found in 0.5% Kraft pulp prepared with solvent-saturated water (Example 5). In kind it is physicochemical. The note with it: 0.5% consistency Kraft pulp, water previously saturated with perchloroethylene. The procedure: A 0.5% consistency Kraft pulp suspension was prepared with water previously saturated with perchloroethylene.

Regarding `CC(Cl)(Cl)Cl` [1,1,1-Trichloroethane], in data set [1], the “Vapor Pressure of pure solvent” value is on record as 100 mm Hg and the “Vapor Pressure at 20° C.” value is 100 mm Hg. Also, in data set [2] (20° C., Table I), the Solubility in water is listed as 700 ppm. Further, the “Henry's Law constant, H” value in data set [3] (20° C.) is given as 0.1429 mm Hg/ppm. The “Time Required to strip out 90%” value in data set [4] turned out to be 32 s.

Consider `ClC(Cl)=C(Cl)Cl` [Perchloroethylene, perchloroethylene], for which the “Vapor Pressure of pure solvent” value in data set [1] is on record as 14.7 mm Hg. The “Vapor Pressure at 20° C.” value in data set [1] is 15 mm Hg. Further, the Solubility in water in data set [2] (20° C., Table I) was 147 ppm; in data set [2] (Example 2, very sparingly soluble in water) it was 150 ppm. Also, the “Value of H” value in data set [3] (15° C.) is given as 0.0760 mm Hg/ppm; in data set [3] (20° C.), 0.1000 mm Hg/ppm; in data set [3] (25° C.), 0.1267 mm Hg/ppm. Further, the “Henry's Law constant, H” value in data set [3] (20° C.) was 0.1000 mm Hg/ppm. The “dissolved C2 Cl4 content of suspension” value in data set [5] is reported as 176 ppm. In addition, in data set [4], the “Time Required to strip out 90%” value was 125 s.

Regarding `ClCCl` [Methylene Chlorine], the “Vapor Pressure at 20° C.” value in data set [1] was 340 mm Hg. The Solubility in water in data set [2] (20° C., Table I) is given as 13,900 ppm. Also, the “Value of H” value came to 0.0183 mm Hg/ppm in data set [3] (15° C.), 0.0241 mm Hg/ppm in data set [3] (20° C.) and 0.0321 mm Hg/ppm in data set [3] (25° C.). For the same compound, the “Henry's Law constant, H” value in data set [3] (20° C.) came out at 0.0241 mm Hg/ppm. Further, in data set [4], the “Time Required to strip out 90%” value amounted to 9 s.
